Activity calls are given as the source filed them.
Tests used:
[1] = molecular target: T1, Voltage-gated N-type calcium channel alpha-1B subunit/Amyloid beta A4 precursor protein-binding family A member 1 (Homo sapiens, UniProt Q00975+Q02410); format: protein assay
[2] = molecular target: T1, Voltage-gated N-type calcium channel alpha-1B subunit/Amyloid beta A4 precursor protein-binding family A member 1; format: protein assay; remark: listed apart in the source
[3] = NIH-3T3 fibroblast cytotoxicity, dose response, cytotoxicity control, cell-based, fluorescence, Alamar Blue, secondary assay (AID 2327); format: functional;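 also: NIH-3T3 mouse fibroblasts cultured with fluconazole at 8 µg/mL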
[4] = molecular target: T2, Delta-type opioid receptor (Homo sapiens, UniProt P41143); assay: HTS Image-Based Screen for Antagonists of the DOR Receptor. [Related pubchem assays (depositor defined):AID1777, AID1785, AID1786, AID2133]; format: functional
Mu-type opioid receptor = Mu-type opioid receptor (Homo sapiens, UniProt P35372); assay: HTS Image-Based Screen for Agonists of the MOR Receptor. [Related pubchem assays (depositor defined):AID1777, AID1785, AID1786, AID2133]; format: functional;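 also: imaging of beta-arrestin GFP recruitment into spots after receptor activation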
[5] = molecular target: T2, Delta-type opioid receptor; assay: HTS Image-Based Screen for Agonists of the DOR Receptor. [Related pubchem assays (depositor defined):AID1777, AID1786, AID2133]; format: functional
[6] = C. albicans growth with fluconazole, confirmation, fluorescence, retest (AID 2467); format: functional, cell-based
[7] = inhibitors of intracellular T. cruzi replication, confirmation, NIH3T3 host cells, beta-gal luminescence (AID 2044); format: functional, cell-based;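 also: intracellular parasites grown in NIH/3T3 mouse fibroblasts as host cells; luminescent beta-galactosidase reporter signal from transgenic T. cruzi replicating inside host cells; inhibitors lower the luminescence signal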
[8] = molecular target: T3, Kappa-type opioid receptor (Homo sapiens, UniProt P41145); format: functional
[9] = cytotoxicity toward NIH3T3 fibroblasts, dose response, counter-screen, cell-based, ATP luminescence, mouse fibroblasts (AID 2010); format: functional;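 also: cells exposed to compound for about 90 hours before reading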
Beta-galactosidase = Beta-galactosidase (Escherichia coli, UniProt Q8VNN2); format: functional
[10] = molecular target: T3, Kappa-type opioid receptor; format: functional; remark: listed apart in the source
[11] = AlphaScreen signal interference compounds, dose response, artefact control for ARNT-TACC3 interaction inhibitor project, biochemical, luminescence, cherry-pick (AID 651705); format: functional;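 also: AlphaScreen bead proximity signal that flags compounds interfering with the detection technology; potency reflects signal decrease which marks the compound as an assay artifact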
SUMO-activating enzyme = SUMO-activating enzyme (Homo sapiens, UniProt Q9UBT2); assay: SUMOylation inhibitor hit validation, confirmation, SUMOylation inhibitor project, biochemical, AlphaScreen (AID 2018); format: functional
[12] = THP-1 cell cytotoxicity, dose response, cytotoxicity control for Vif-APOBEC3G degradation inhibitor project, THP-1 cells (AID 1117359); format: functional; conditions: Human immunodeficiency virus 1, THP-1
[13] = molecular target: T4, Calpain-2 catalytic subunit (Sus scrofa, UniProt P43367); assay: pig calpain II inhibitor potency, dose response, biochemical, fluorogenic peptide substrate (AID 1420); format: functional
T4 sequence (P43367 whole entry): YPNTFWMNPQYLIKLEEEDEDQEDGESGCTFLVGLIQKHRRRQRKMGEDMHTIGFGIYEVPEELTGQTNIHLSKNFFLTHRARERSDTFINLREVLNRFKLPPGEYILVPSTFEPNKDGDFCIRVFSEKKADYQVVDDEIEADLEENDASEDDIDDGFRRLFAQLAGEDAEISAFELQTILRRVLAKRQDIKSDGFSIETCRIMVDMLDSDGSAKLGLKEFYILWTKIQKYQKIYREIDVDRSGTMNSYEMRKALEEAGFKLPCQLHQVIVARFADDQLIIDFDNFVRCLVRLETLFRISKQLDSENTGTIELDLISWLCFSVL

[14] = molecular target: Lysine-specific demethylase 4C (Homo sapiens, UniProt Q9H3R0); assay: GASC-1 (JMJD2C) histone demethylase inhibitors, dose response, biochemical, DELFIA europium, cherry-picked samples (AID 488835); format: functional
[15] = molecular target: T5, Hepatocyte nuclear factor 4-alpha (Homo sapiens, UniProt P41235); format: functional, cell-based;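 also: biochemical luminescence-based dose-response counterscreen measuring inhibition of HNF4 dimerization, run alongside a screen for blockers of ABHD5–perilipin-5 interaction; split luciferase complementation of HNF4 fusion proteins in cell lysate measuring dimerization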
T5 sequence (P41235 whole entry): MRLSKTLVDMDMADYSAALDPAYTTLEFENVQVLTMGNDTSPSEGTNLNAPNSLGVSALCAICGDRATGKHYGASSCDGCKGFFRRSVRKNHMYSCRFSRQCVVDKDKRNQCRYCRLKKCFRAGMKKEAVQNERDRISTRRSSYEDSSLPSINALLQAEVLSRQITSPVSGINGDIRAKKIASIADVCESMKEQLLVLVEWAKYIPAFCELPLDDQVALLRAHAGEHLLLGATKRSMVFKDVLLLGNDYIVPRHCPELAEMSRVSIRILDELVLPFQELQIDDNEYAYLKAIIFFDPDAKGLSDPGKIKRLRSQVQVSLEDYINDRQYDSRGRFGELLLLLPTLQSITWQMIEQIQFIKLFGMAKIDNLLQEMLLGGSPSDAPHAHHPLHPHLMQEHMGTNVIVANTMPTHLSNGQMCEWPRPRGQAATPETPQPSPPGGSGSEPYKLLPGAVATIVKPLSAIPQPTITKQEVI

[16] = molecular target: Alkaline phosphatase, placental type (Homo sapiens, UniProt P05187); assay: PLAP enzyme inhibitors, confirmation, biochemical, luminescence (AID 1512); format: functional
Trypsin = Trypsin (Sus scrofa, UniProt P00761); assay: porcine trypsin inhibitors, dose response, selectivity assay for Rce1 protease inhibitor project, biochemical, quenched peptide fluorescence, cherry-pick (AID 488789)
CAAX prenyl protease 2 = molecular target: T6, CAAX prenyl protease 2 (Saccharomyces cerevisiae S288c, UniProt Q03530); format: biochemical
T6 sequence (Q03530 whole entry): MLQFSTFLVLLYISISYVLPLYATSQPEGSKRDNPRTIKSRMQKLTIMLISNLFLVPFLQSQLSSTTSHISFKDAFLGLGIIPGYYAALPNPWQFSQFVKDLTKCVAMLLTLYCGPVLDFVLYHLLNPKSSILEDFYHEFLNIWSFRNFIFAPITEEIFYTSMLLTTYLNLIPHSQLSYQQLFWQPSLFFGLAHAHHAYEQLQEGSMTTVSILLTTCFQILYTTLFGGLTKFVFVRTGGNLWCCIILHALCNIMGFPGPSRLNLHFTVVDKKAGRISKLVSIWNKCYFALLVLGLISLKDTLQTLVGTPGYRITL

H9c2 = assay: cells; format: functional, cell-based; conditions: Rattus norvegicus, H9c2, Myocardium;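 also: confirmatory concentration-response retest of ultra-high-throughput screening hits for modulation of myocardial damage; cell death induced by hydrogen peroxide oxidative stress; compound pretreatment for 60 min then peroxide exposure for 2 h; potency is for protecting the cells against peroxide damage rather than for killing them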
[17] = Luminescence Cell-Based Dose Confirmation HTS to Identify Activators of 5'UTR Stem-Loop Driven Alpha-Synuclein mRNA Translation in H4 Neuroglioblastoma Cells. [Related pubchem assays: 1829 (Project Summary), 1814 (Primary HTS)]; format: functional
[18] = Luminescence Cell-Based Dose Response HTS to Identify Activators of Luciferase Translation or Activity in H4 […] Cells. [Related pubchem assays: 1829 (Project Summary), 1814 (Primary HTS)]; format: functional
H4 = assay: Luminescence Cell-Based Dose Response HTS to Identify Activators of 5'UTR Stem-Loop Driven Prion Protein mRNA Translation in H4 Neuroglioblastoma Cells. [Related pubchem assays: 1829 (Project Summary), 1814 (Primary HTS)]; format: functional; conditions: Homo sapiens
[19] = molecular target: T7, Tyrosine-protein phosphatase non-receptor type 7 (Homo sapiens, UniProt P35236); assay: HePTP (PTPN7) phosphatase inhibitor potency, SAR follow-up, biochemical, set 2 (AID 449736); format: functional
T7 sequence (P35236 whole entry): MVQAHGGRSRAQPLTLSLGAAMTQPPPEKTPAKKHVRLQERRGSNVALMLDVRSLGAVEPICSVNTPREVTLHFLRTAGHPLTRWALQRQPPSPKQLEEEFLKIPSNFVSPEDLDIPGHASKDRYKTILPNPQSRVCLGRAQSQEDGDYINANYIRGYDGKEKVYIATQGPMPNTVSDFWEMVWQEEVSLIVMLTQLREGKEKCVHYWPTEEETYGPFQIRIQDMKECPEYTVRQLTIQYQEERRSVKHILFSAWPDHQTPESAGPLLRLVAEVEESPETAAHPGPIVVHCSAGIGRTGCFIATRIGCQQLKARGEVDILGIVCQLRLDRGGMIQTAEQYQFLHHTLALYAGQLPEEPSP

[20] = molecular target: T8, Corticotropin-releasing factor receptor 2/Corticotropin-releasing factor-binding protein (Homo sapiens, UniProt P24387+Q13324); assay: Dose Response confirmation of uHTS hits for small molecule antagonists of the CRF-binding protein and CRF-R2 receptor complex.; format: functional; conditions: read-out: IC50_Mean
T8 sequence (Q13324 whole entry): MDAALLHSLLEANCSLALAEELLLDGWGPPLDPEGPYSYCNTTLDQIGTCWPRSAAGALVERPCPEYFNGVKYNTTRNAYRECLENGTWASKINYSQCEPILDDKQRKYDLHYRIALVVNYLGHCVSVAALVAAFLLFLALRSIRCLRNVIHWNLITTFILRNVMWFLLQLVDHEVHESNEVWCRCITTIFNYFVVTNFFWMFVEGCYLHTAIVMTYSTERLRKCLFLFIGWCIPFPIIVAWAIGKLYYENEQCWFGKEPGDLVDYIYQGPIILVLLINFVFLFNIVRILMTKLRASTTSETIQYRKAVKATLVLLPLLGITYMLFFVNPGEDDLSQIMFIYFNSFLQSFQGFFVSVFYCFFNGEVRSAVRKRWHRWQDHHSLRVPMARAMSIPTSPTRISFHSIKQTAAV
T8 sequence (P24387 whole entry): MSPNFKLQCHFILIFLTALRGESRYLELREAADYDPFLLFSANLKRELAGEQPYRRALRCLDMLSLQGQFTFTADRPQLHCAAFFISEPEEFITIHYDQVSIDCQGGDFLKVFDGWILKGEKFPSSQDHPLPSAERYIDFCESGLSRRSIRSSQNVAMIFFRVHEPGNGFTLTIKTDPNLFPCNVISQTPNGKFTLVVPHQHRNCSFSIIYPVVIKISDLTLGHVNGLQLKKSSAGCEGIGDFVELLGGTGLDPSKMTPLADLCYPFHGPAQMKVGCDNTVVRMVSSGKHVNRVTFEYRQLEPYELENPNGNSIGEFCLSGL

[21] = molecular target: T8, Corticotropin-releasing factor receptor 2/Corticotropin-releasing factor-binding protein; assay: activators of CRF receptor 2 with binding protein – uHTS hits, confirmation (AID 602473); format: functional; conditions: read-out: EC50_Mean
Nonstructural protein 1 = Nonstructural protein 1 (Influenza A virus, UniProt Q194T2); format: functional, Influenza A virus (A/California/07/2009(H1N1))
[22] = molecular target: T9, Microphthalmia-associated transcription factor (Homo sapiens, UniProt O75030); assay: TRPM1 promoter luciferase signal decrease, dose response, MITF inhibitor project, cell-based, SK-MEL-5, cherry-picked, set 3 (AID 493073); format: functional
T9 sequence (O75030 whole entry): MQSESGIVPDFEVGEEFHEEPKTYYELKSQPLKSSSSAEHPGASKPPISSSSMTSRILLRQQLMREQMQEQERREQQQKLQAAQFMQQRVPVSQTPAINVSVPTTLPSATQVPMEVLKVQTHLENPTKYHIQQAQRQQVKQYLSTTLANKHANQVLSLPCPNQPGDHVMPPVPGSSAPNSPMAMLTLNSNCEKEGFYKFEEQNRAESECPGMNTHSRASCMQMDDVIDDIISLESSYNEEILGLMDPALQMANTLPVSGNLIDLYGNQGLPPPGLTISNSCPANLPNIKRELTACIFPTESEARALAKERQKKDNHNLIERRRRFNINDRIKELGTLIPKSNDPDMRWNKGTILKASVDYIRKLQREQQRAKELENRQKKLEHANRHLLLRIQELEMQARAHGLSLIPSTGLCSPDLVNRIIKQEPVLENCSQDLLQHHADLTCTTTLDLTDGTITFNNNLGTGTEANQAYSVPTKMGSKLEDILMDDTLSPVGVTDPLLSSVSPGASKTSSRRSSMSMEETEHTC

T1 sequence (Q00975 whole entry): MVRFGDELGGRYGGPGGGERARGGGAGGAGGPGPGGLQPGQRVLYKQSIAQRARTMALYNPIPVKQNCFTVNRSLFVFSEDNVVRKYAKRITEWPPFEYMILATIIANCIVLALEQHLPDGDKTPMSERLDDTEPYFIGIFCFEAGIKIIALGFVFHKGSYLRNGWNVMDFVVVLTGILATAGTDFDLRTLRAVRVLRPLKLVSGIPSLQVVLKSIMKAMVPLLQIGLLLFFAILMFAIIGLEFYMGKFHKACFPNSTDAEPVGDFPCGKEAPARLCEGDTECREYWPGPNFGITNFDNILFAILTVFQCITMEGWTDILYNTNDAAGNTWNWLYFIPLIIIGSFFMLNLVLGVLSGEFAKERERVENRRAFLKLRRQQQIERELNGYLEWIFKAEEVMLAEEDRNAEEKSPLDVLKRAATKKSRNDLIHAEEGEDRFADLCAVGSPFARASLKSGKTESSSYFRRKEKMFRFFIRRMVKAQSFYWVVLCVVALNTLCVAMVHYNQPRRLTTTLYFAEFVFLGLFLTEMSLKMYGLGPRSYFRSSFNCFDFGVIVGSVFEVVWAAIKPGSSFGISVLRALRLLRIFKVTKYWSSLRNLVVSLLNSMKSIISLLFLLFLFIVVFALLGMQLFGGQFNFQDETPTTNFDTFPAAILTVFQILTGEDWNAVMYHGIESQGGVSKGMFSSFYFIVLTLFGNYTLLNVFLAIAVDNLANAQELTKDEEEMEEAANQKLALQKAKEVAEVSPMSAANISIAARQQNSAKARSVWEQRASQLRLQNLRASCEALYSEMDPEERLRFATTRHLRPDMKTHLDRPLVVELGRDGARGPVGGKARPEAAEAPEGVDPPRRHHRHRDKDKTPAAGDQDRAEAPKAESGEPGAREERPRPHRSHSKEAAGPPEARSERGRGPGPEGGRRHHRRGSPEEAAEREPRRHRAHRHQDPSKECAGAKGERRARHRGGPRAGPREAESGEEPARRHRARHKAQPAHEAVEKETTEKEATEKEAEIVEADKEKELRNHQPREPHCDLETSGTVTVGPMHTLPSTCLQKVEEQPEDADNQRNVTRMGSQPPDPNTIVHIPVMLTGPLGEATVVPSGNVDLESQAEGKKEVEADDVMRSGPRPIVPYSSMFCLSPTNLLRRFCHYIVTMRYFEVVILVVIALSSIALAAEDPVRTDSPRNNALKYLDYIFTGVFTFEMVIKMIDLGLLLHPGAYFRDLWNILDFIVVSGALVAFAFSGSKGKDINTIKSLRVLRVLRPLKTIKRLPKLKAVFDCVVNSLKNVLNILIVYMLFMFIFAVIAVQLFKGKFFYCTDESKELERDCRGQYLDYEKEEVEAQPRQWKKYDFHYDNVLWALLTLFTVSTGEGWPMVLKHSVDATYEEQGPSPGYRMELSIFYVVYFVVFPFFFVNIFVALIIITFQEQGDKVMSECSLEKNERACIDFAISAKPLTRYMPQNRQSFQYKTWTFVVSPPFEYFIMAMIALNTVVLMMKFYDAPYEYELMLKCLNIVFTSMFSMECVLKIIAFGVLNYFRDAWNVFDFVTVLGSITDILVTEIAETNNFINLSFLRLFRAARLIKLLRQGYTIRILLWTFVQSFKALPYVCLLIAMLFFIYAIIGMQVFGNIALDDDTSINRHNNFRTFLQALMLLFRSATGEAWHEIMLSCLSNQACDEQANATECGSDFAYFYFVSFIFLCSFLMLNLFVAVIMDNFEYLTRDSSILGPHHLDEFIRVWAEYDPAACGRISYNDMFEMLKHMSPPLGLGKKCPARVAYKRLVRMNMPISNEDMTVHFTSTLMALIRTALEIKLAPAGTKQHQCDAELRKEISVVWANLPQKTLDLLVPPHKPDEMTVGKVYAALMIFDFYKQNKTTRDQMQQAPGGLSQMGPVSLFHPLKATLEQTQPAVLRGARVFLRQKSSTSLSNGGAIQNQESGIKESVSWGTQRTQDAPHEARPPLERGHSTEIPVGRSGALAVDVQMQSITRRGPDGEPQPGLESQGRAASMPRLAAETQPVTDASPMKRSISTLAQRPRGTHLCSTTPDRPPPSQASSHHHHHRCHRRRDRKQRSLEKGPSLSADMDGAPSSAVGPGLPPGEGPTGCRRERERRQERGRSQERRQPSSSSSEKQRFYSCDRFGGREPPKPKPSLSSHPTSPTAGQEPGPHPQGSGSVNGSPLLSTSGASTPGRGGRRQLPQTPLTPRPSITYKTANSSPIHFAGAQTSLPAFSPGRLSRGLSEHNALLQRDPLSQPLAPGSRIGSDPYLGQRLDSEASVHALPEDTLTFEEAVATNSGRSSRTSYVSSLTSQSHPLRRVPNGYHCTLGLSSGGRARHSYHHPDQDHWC
T1 sequence (Q02410 whole entry): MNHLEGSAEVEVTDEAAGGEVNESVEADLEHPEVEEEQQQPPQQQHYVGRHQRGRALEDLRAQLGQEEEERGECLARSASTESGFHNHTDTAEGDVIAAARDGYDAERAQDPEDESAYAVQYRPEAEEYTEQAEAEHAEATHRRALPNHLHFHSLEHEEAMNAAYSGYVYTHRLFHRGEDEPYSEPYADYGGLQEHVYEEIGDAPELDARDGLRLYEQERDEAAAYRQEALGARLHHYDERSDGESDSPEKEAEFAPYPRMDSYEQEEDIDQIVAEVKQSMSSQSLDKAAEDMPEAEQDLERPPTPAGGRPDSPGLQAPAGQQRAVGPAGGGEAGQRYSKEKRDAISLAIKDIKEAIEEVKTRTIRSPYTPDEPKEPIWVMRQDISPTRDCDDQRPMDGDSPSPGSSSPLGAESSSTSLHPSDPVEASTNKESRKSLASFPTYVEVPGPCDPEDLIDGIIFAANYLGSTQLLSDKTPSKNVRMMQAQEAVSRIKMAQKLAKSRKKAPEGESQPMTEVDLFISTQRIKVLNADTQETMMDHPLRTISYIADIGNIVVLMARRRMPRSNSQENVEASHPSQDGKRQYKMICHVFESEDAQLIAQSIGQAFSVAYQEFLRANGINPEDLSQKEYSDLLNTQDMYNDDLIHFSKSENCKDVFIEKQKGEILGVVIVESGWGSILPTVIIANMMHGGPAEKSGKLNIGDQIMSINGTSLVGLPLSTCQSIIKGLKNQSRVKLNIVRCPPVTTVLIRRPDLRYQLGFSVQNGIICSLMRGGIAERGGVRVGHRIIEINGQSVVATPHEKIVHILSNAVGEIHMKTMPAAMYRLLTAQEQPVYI
T3 sequence (P41145 whole entry): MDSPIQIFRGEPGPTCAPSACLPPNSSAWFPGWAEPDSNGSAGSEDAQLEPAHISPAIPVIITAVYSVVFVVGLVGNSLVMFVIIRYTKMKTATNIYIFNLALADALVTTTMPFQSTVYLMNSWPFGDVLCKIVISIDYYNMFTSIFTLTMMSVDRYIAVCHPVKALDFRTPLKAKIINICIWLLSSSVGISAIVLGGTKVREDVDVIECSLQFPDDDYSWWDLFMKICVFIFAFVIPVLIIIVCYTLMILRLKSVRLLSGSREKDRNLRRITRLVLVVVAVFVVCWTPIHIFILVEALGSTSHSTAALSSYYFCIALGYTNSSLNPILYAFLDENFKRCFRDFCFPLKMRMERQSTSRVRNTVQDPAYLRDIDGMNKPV
T2 sequence (P41143 whole entry): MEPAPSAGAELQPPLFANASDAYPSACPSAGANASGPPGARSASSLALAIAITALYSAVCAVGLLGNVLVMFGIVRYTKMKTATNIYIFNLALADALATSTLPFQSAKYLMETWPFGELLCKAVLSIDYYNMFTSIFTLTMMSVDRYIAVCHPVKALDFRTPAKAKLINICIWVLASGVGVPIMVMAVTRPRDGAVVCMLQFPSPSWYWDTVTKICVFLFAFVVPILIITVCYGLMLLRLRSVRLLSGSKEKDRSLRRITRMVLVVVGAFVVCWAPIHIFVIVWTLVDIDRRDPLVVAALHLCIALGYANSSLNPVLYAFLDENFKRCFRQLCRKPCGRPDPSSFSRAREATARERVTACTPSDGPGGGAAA
SUMO-activating enzyme, sequence (Q9UBE0 whole entry): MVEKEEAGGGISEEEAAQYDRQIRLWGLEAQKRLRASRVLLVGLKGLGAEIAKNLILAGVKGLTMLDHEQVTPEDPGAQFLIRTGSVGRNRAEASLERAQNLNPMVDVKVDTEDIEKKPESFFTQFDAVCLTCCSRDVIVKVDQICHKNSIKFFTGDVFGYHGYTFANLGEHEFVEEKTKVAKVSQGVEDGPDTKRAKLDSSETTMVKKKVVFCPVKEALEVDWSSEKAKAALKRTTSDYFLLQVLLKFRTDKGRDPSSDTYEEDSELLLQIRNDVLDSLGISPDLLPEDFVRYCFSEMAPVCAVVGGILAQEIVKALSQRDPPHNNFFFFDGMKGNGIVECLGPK
SUMO-activating enzyme, sequence (Q9UBT2 whole entry): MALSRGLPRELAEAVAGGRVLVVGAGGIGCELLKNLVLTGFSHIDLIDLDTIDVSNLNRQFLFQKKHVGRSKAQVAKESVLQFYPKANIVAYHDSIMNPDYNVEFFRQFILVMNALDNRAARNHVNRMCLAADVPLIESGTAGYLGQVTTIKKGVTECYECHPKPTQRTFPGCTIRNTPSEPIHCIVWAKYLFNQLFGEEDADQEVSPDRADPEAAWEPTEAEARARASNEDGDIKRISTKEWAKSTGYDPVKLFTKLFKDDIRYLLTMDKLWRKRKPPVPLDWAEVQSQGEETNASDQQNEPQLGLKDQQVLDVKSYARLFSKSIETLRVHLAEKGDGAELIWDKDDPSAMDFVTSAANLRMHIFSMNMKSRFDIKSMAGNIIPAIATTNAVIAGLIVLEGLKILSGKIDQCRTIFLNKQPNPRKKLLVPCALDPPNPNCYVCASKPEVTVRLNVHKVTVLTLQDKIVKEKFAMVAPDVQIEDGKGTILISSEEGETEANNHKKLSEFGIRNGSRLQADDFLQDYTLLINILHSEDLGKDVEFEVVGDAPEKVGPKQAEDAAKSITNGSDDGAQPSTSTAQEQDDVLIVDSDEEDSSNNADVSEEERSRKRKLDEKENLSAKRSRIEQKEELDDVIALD

Structure (SMILES): COc1cc(NC(=O)c2cccs2)ccc1NC(=O)c1cc2ccccc2o1
- IC50 [1]: 11.2 µM (active)
- IC50 [2]: > 50 µM (inactive)

Structure (SMILES): O=S(=O)(Nc1cccc2cccnc12)c1ccc(S(=O)(=O)N2CCCC2)cc1
- EC50 [3]: 17.2 µM (active)
- IC50 [4]: > 32 µM (inactive)
- EC50 (Mu-type opioid receptor): > 32 µM (inactive)
- EC50 [5]: > 32 µM (inactive)
- EC50 [6]: 4.29 µM (active)
- EC50 [7]: 2.33 µM (active)
- IC50 [8]: 8.52 µM (active)
- EC50 [9]: 5.05 µM (active)
- EC50 (Beta-galactosidase): > 31.5 µM (inactive)
- IC50 [10]: > 32 µM
- AC50 [11]: 110 µM (active)

Structure (SMILES): COc1ccc(/C=C/c2nnc(NC(=O)CSc3ccc(C)cc3)s2)cc1
- IC50 (SUMO-activating enzyme): > 100 µM (inactive)
- CC50 [12]: > 40 µM (active)

Structure (SMILES): CC1CN(Cc2c(O)ccc3c2oc(=O)c2ccccc23)CC(C)O1 (stereo not drawn)
- IC50 [13]: 3.06 µM (not active)
- AC50 [14]: 0.95 µM (active)
- IC50 [15]: 2.68 µM (active)

Structure (SMILES): Cc1cccc2nc(CSc3nc4ccccc4[nH]3)cn12
- IC50 [16]: > 100 µM (inactive)

Structure (SMILES): COC(=O)c1ccc(CSc2nc(O)c3c(C)c(C(=O)O)sc3n2)cc1
- AC50 [14]: 10.6 µM (active)

Structure (SMILES): NC(=O)c1nsc(C(=O)N(c2ccccc2F)C(C(=O)NCc2ccccc2)c2ccc(O)cc2)c1N (stereo not drawn)
- AC50 (Trypsin): 12 µM (active)
- AC50 (CAAX prenyl protease 2): 13.8 µM (active)
- IC50 (H9c2): > 79 µM (inactive)

Structure (SMILES): NC1=C(c2nc(-c3ccc(Cl)cc3)cs2)C(=O)CN1NC(=O)c1ccc(O)cc1
- EC50 [17]: > 120 µM (not active)
- EC50 [18]: 9.72 µM (active)
- EC50 (H4): 94.6 µM (active)
- IC50 [1]: 7.51 µM (active)
- IC50 [2]: > 50 µM (inactive)

Structure (SMILES): NC1(C(Cl)(Cl)Cl)Oc2cc(Cl)c(Cl)cc2O1
- IC50 [16]: > 100 µM (inactive)

Structure (SMILES): NS(=O)(=O)c1ccc(NC(=S)NC2CCN(Cc3ccccc3)CC2)cc1
- IC50 [19]: > 100 µM (inactive)

Structure (SMILES): O=C(CC1SC(N/N=C/C=C/c2ccccc2)=NC1=O)Nc1ccc(Cl)c(Cl)c1 (stereo not drawn)
- IC50 (SUMO-activating enzyme): 34.6 µM (active)
- IC50 [20]: > 47.1 µM (inactive)
- EC50 [21]: > 53 µM (inactive)

Structure (SMILES): C/C(=N\NC(=O)C1COc2ccccc2O1)c1ccccn1 (stereo not drawn)
- IC50 [8]: 6.93 µM (active)
- EC50 (Beta-galactosidase): > 31.5 µM (inactive)
- IC50 [10]: > 32 µM
- IC50 (Nonstructural protein 1): 5.62 µM (active)
- AC50 [22]: 4.49 µM (active)

— ChEMBL document CHEMBL1201862, “PubChem BioAssay data set” (2004)
